Here are results for one molecule from patent US9604932B2 (priority 2013, dated 2017).

A short description of data set [1]: Plasma pharmacokinetics in sheep (release of R-100 from R-107), LCMS. In kind it is in vivo. The method, then: In the following two experiments, the pharmacokinetic of releasing R-100 from R-107, via R-105 that is the reduced form of R-100, was studied in vivo according to the protocol described herein.
100 μl aliquots plasma obtained from R-107-treated sheep or pig were thawed and 200 μl ice-cold ethanol was added to each 100 μl sample to precipitate protein. Samples were then vortexed, placed on ice for 10 minutes, and then spun down at room temperature for 15 minutes. A first 100 μl supernatant from each spun sample was withdrawn and placed in a labeled HPLC micro vial to which 300 μl MPA (LC mobile phase A) was added, and the vial contents were then mixed and submitted for LCMS analysis (kept at 4° C.). The concentration of R-107 was measured in this sample as was the concentration of R105. A second 100 μl supernatant from each spun sample was added to a labelled HPLC micro vial to which 300 μl MPA and 2 μl of Reducing solution (ascorbic acid, 1.0 mg/ml in water) were added. These vials were vortexed; incubated at 50° C. for 1 hour with gentle shaking; and were then cooled to 4° C. and submitted for LCMS analysis. This sample was analyzed for R105, i.e., reduced form of R-100, and the amount measured thus represents the sum of R-100 and R-105 originally present in the plasma. The concentration of R-100 can be calculated from that of the R-105 in the second sample minus that of R-105 in the first sample. However, the concentrations of R-105 were seen to be low (approximately 10% or less of those of R-100) and so the results reported below as R-100 are not corrected for R-105.
Sets of standards (R-100, R-105 and R-107) were prepared by spiking individually in pig plasma. 100 μl aliquots of these spiked plasma samples, after thawing, were included in the above extraction protocol.
Analysis method were carried out with an Agilent HPLC stack, with column eluate directed, via a diverter valve, into the source of an AB Sciex ‘Qstar Elite’ Hybrid TOF, high-resolution mass spectrometer. LC column: Phenomenex Kinetex C18 2.6u 100A, 2.1×50 mm. LC mobile phase A: H2O with 0.02% trifluoroacetic acid (TFA), 0.1% formic acid (HOF); Phase B: acetonitrile (ACN) with 0.02% TFA, 0.1% HOF. Mobile phase flow rate=500 μl/min. Injection size: 8 μl, via Agilent 1100 u-WPS autosampler. […]

A short description of data set [2]: Density of R-107. It counts as physicochemical. More on the design: unit not given here. To be noted: oil.
Data set [3] is described as follows: Conversion of prodrug upon exposure to plasma, biological solutions and tissues. In kind it is in vitro ADME. The following applies: stable oil until exposure to plasma.
For data set [4], the system named is mice exposed to a lethal dose of E. coli lipopolysaccharide (LPS). Description: Murine model of sepsis (lethal dose of E. coli LPS). It counts as in vivo, Balb/c mice. The following applies: protocol only; 0, 20, 40, or 80 mg/kg/day BID IP. The method, then:
In this study, Balb/c mice exposed to a lethal dose of E. coli lipopolysaccharide (LPS; 10 mg/kg IP) are treated with R-107 (0, 20, 40, or 80 mg/kg/day, BID IP), with the initial dose given 1 hour after LPS injection, and the mortality for the animal treated with LPS only (the control group) vs. that for the animals treated with the various doses of R-107 is compared.
In a satellite study, tissues and sera are collected at 16 hours, i.e., 15 hours after the first administration and 3 hours after the second administration of R-107, for analysis, and the level of creatinine, aspartate transminase (AST), alanine transaminase (ALT), bilirubin, amylase, lipase, and alkaline phosphatase (ALP), associated with kidney, pancreas, and liver functioning are measured.

The subject of data set [5] is pulmonary hypertension of the newborn (PPHN). Description: Lamb model of pulmonary hypertension of the newborn. To be noted: protocol only; 0.3, 1.0, 3.0 mg/kg/h IV. It counts as in vivo, newborn lambs. The method, then: In this study, a prospective, placebo-controlled, dose-escalation, randomized study is carried out in anesthetized, mechanically-ventilated, and muscle-relaxed newborn lambs wherein pulmonary hypertension of the newborn (PPHN) has been induced by in utero ligation of the ductus arteriosus. This clinically-relevant gold-standard model is characterized by severe PAH that is poorly responsive to inhaled nitric oxide (iNO), thus reflecting the 30-50% of clinical PPHN non-responders to clinical iNO therapy. R-107 (0, 0.3, 1.0, and 3.0 mg/kg/h IV; n=6 per group) is compared to iNO (40 ppm; n=6) over a 6 hour period of observation. Hemodynamic parameters are monitored for response to treatment and post-treatment rebound pulmonary arterial hypertension. The activity of R-107 is related to its plasma concentration, in order to construct a pharmacodynamic profile.

The subject of data set [6] is retinal ischemia-reperfusion injury. Description: Murine model of retinal ischemia-reperfusion injury. The following applies: protocol only; 30 mg/kg/day IP BID. It counts as in vivo, C57BL/6 mice. The method, then:
In this study, the efficacy of R-107 in subacute murine model of retinal ischemia-reperfusion injury is tested, using male C57BL/6 mice (n=10 per group). Briefly, the anterior chamber of the right eye is cannulated with a 30 gauge needle attached to a line infusing sterile saline. The intraocular pressure (IOP) is raised to 110 mmHg by elevating the saline reservoir. The left eye undergoes sham surgery, in which the needle is inserted into the anterior chamber without elevating IOP. R-107 is injected (30 mg/kg/day IP BID) commencing directly before reperfusion. 2 vehicle controls (normal saline and HPCD) is compared to drug therapy. Treatments are repeated twice daily thereafter until sacrifice. The outcome of these pharmacologic studies is quantitatively assessed by using terminal deoxynucleotidyl transferase dUTP nick end labeling (TUNEL) to measure retinal cell death (after 3 days), confocal imaging to quantify survival of ganglion cell layer neurons (after 7 days), and electroretinogram recordings to measure retinal neuronal function (after 21 days).

Data set [7] has as its system erectile dysfunction (ED). The data set is described as follows: Rat model of erectile dysfunction. It counts as in vivo, Sprague-Dawley rats. To be noted: protocol only; 80 mg/kg/day BID IV.

Turning to `CC(=O)ON1C(C)(C)CC(CO[N+](=O)[O-])C1(C)C` (centres unmarked) [R-107, 2,2,5,5-tetramethyl-3-(nitrooxymethyl)pyrrolidin-1-yl acetate], in data set [1] (IM neat R-107 25 mg/kg, 48 hrs post dose), the R-100 in plasma entry is listed as “not detected”. Further, the R-107 in plasma result in data set [1] (IV neat R-107 25 mg/kg over 10 minutes, 2 hrs post dose) is recorded as “not detected”; in data set [1] (IV neat R-107 25 mg/kg over 10 minutes, 4 hrs post dose), “not detected”; in data set [1] (IV neat R-107 25 mg/kg over 10 minutes, 6 hrs post dose) it was “not detected”; in data set [1] (IV neat R-107 25 mg/kg over 10 minutes, 8 hrs post dose), “not detected”; in data set [1] (IV neat R-107 25 mg/kg over 10 minutes, 24 hrs post dose) it was “not detected”. Also, in data set [1] (plasma, IV neat R-107 25 mg/kg over 10 minutes, 0 hrs post dose), the concentration at 0 h was found to be 0 ng/mL. Moreover, in data set [1] (plasma, IV neat R-107 25 mg/kg over 10 minutes, 0.1 hrs post dose), the concentration at 0.1 h stood at 5500 ng/mL. In data set [1] (plasma, IV neat R-107 25 mg/kg over 10 minutes, 0.4 hrs post dose), this molecule displayed a concentration at 0.4 h of 1210 ng/mL. In addition, the concentration at 0.5 h in data set [1] (plasma, IV neat R-107 25 mg/kg over 10 minutes, 0.5 hrs post dose) was found to be 200 ng/mL. The molecule further gave a concentration at 1 h in data set [1] (plasma, IV neat R-107 25 mg/kg over 10 minutes, 1 hrs post dose) of 0 ng/mL. In data set [2], this molecule returned a Density of 1.12. Besides, the “Stability / conversion upon exposure to plasma” value in data set [3] is recorded as “readily converted to its corresponding 1-pyrrolidinyloxy derivative R-100”. Besides, the “Efficacy in murine model of sepsis” value in data set [4] was “Effective”. The “Efficacy in lamb model of pulmonary hypertension of the newborn” value in data set [5] is given as “Effective”. For the same molecule, in data set [6], the “Efficacy in murine model of retinal ischemia-reperfusion injury” value is “Effective”. The “Efficacy in rat model of erectile dysfunction” value in data set [7] is recorded as “Effective”.
